Test results reported in patent US8192962B2, “Processes for detecting toxic substances” (Daikin Industries, Ltd., priority 2001, dated 2012).

Tested on: Genes belonging to other category
Test: DNA chip mRNA expression in yeast, genes belonging to other category (Table 9)
Assay type: cell-based, Saccharomyces cerevisiae S288C
In short: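 Expression change after 2 h toxicant exposure (growth-inhibiting, sub-lethal) of log-phase S. cerevisiae S288C at 25° C. Oligo-dT-purified mRNA was labeled with Cy3-dUTP or Cy5-dUTP and hybridized >12 h at 65° C. to a genome-wide chip; ratio of scanned fluorescence to control.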

Compound: CCCCCCCCCCCCOS(=O)(=O)[O-].[Na+] [(18), sodium lauryl sulfate]
- The level of expressed mRNA in the presence of chemical substance/The level of expressed mRNA in the absence of chemical substance (yeast gene YMR219W): 0.9
- The level of expressed mRNA in the presence of chemical substance/The level of expressed mRNA in the absence of chemical substance (yeast gene YMR226C): 2.0
- The level of expressed mRNA in the presence of chemical substance/The level of expressed mRNA in the absence of chemical substance (yeast gene YMR275C): 0.7
- The level of expressed mRNA in the presence of chemical substance/The level of expressed mRNA in the absence of chemical substance (yeast gene YMR276W): 0.7
- The level of expressed mRNA in the presence of chemical substance/The level of expressed mRNA in the absence of chemical substance (yeast gene YMR297W): 1.4
- The level of expressed mRNA in the presence of chemical substance/The level of expressed mRNA in the absence of chemical substance (yeast gene YMR314W): 1.6
- The level of expressed mRNA in the presence of chemical substance/The level of expressed mRNA in the absence of chemical substance (yeast gene YNL006W): 1.3
- The level of expressed mRNA in the presence of chemical substance/The level of expressed mRNA in the absence of chemical substance (yeast gene YNL007C): 1.0
- The level of expressed mRNA in the presence of chemical substance/The level of expressed mRNA in the absence of chemical substance (yeast gene YNL036W): 1.9
- The level of expressed mRNA in the presence of chemical substance/The level of expressed mRNA in the absence of chemical substance (yeast gene YNL093W): 3.1
- The level of expressed mRNA in the presence of chemical substance/The level of expressed mRNA in the absence of chemical substance (yeast gene YNL196C): 1.2
- The level of expressed mRNA in the presence of chemical substance/The level of expressed mRNA in the absence of chemical substance (yeast gene YNL333W): 1.1
- The level of expressed mRNA in the presence of chemical substance/The level of expressed mRNA in the absence of chemical substance (yeast gene YNL335W): 1.1
- The level of expressed mRNA in the presence of chemical substance/The level of expressed mRNA in the absence of chemical substance (yeast gene YNR006W): 1.2
- The level of expressed mRNA in the presence of chemical substance/The level of expressed mRNA in the absence of chemical substance (yeast gene YNR010W): 2.3
- The level of expressed mRNA in the presence of chemical substance/The level of expressed mRNA in the absence of chemical substance (yeast gene YNR069C): 0.9
- The level of expressed mRNA in the presence of chemical substance/The level of expressed mRNA in the absence of chemical substance (yeast gene YOL005C): 1.2
- The level of expressed mRNA in the presence of chemical substance/The level of expressed mRNA in the absence of chemical substance (yeast gene YOL013C): 1.4
- The level of expressed mRNA in the presence of chemical substance/The level of expressed mRNA in the absence of chemical substance (yeast gene YOL016C): 3.8
- The level of expressed mRNA in the presence of chemical substance/The level of expressed mRNA in the absence of chemical substance (yeast gene YOL152W): 1.2
- The level of expressed mRNA in the presence of chemical substance/The level of expressed mRNA in the absence of chemical substance (yeast gene YOL164W): 1.3
- The level of expressed mRNA in the presence of chemical substance/The level of expressed mRNA in the absence of chemical substance (yeast gene YOR003W): 1.1
- The level of expressed mRNA in the presence of chemical substance/The level of expressed mRNA in the absence of chemical substance (yeast gene YOR036W): 1.7
- The level of expressed mRNA in the presence of chemical substance/The level of expressed mRNA in the absence of chemical substance (yeast gene YOR117W): 0.9
- The level of expressed mRNA in the presence of chemical substance/The level of expressed mRNA in the absence of chemical substance (yeast gene YOR124C): 1.0
- The level of expressed mRNA in the presence of chemical substance/The level of expressed mRNA in the absence of chemical substance (yeast gene YOR132W): 1.6
- The level of expressed mRNA in the presence of chemical substance/The level of expressed mRNA in the absence of chemical substance (yeast gene YOR133W): 1.2
- The level of expressed mRNA in the presence of chemical substance/The level of expressed mRNA in the absence of chemical substance (yeast gene YOR157C): 1.2
- The level of expressed mRNA in the presence of chemical substance/The level of expressed mRNA in the absence of chemical substance (yeast gene YOR181W): 0.6
- The level of expressed mRNA in the presence of chemical substance/The level of expressed mRNA in the absence of chemical substance (yeast gene YOR185C): 1.1
- The level of expressed mRNA in the presence of chemical substance/The level of expressed mRNA in the absence of chemical substance (yeast gene YOR198C): 1.5
- The level of expressed mRNA in the presence of chemical substance/The level of expressed mRNA in the absence of chemical substance (yeast gene YOR259C): 1.5
- The level of expressed mRNA in the presence of chemical substance/The level of expressed mRNA in the absence of chemical substance (yeast gene YOR261C): 1.9
- The level of expressed mRNA in the presence of chemical substance/The level of expressed mRNA in the absence of chemical substance (yeast gene YOR265W): 1.2
- The level of expressed mRNA in the presence of chemical substance/The level of expressed mRNA in the absence of chemical substance (yeast gene YOR288C): 1.6
- The level of expressed mRNA in the presence of chemical substance/The level of expressed mRNA in the absence of chemical substance (yeast gene YOR355W): 0.9
- The level of expressed mRNA in the presence of chemical substance/The level of expressed mRNA in the absence of chemical substance (yeast gene YOR383C): 1.1
- The level of expressed mRNA in the presence of chemical substance/The level of expressed mRNA in the absence of chemical substance (yeast gene YPL001W): 1.2
- The level of expressed mRNA in the presence of chemical substance/The level of expressed mRNA in the absence of chemical substance (yeast gene YPL089C): 1.1
- The level of expressed mRNA in the presence of chemical substance/The level of expressed mRNA in the absence of chemical substance (yeast gene YPL109C): 1.2
- The level of expressed mRNA in the presence of chemical substance/The level of expressed mRNA in the absence of chemical substance (yeast gene YPL124W): 1.2
- The level of expressed mRNA in the presence of chemical substance/The level of expressed mRNA in the absence of chemical substance (yeast gene YPL149W): 2.9
- The level of expressed mRNA in the presence of chemical substance/The level of expressed mRNA in the absence of chemical substance (yeast gene YPL154C): 2.0
- The level of expressed mRNA in the presence of chemical substance/The level of expressed mRNA in the absence of chemical substance (yeast gene YPL220W): 1.1
- The level of expressed mRNA in the presence of chemical substance/The level of expressed mRNA in the absence of chemical substance (yeast gene YPR066W): 1.2
- The level of expressed mRNA in the presence of chemical substance/The level of expressed mRNA in the absence of chemical substance (yeast gene YPR086W): 1.2
- The level of expressed mRNA in the presence of chemical substance/The level of expressed mRNA in the absence of chemical substance (yeast gene YPR103W): 1.5
- The level of expressed mRNA in the presence of chemical substance/The level of expressed mRNA in the absence of chemical substance (yeast gene YPR108W): 1.3
